Literature values as cited in patent US20090048319A1, “Method of Using a Micronutrient as Safener for a Triazole for Controlling Harmful Fungi” (priority 2006, published 2009).

Tested on: wheat
Conditions: in vivo

CC1(C)CC/C(=C\c2ccc(Cl)cc2)C1(O)Cn1cncn1 (stereo not shown) [triticonazole, (5E)-5-[(4-chlorophenyl)methylene]-2,2-dimethyl-1-(1H-1,2,4-triazol-1-ylmethyl)cyclopentanol]
negative effect on plant growth: strongly reduced longitudinal growth
